Assay results published in patent US20220062299A1, “USE OF GLUCOCORTICOID STEROIDS IN PREVENTING AND TREATING CONDITIONS OF MUSCLE WASTING, AGING AND METABOLIC DISORDER” (NORTHWESTERN UNIVERSITY, priority 2018, published 2022).

Tested on: mdx mice
Experiment: Dosing of metabolic and endocrine biomarkers in blood, serum and tissues, mdx mice, long-term (40 weeks) weekly prednisone
Assay type: in vivo
Protocol: Animal handling and steroid regimens. Mice were housed in a pathogen-free dedicated vivarium in accordance with Institutional Animal Care and Use Committee (IACUC) guidelines. Euthanasia was performed through carbon dioxide inhalation followed by cervical dislocation and heart removal. All methods using living animals in this study were performed in ethical accordance with the American Veterinary Medical Association (AVMA) and under protocols fully approved by both the Institutional Animal Care and Use Committee (IACUC) at Northwestern University Feinberg School of Medicine (protocol number ISO00000761). Consistent with the ethical approvals, all efforts were made to minimize suffering. Mice were fed ad libitum with Mouse Breeder Sterilizable Diet (#7904; Harlan Teklad, Indianapolis, Ind.) and maintained on a 12-hour light/dark cycle. mdx mice from the DBA/2J background were obtained from the Jackson Laboratory (Bar Harbor, Me.; stock #013141) and interbred. Male mice were used for reported experiments. Age at start was approximately 6 months for short-term experiments, approximately 6 weeks for long-term experiments. Dysferlin-null (Dysf-null) mice from the 129T2/SvEmsJ background were previously characterized (Demonbreun et al., 2011; Demonbreun et al., 2014). Age at start was approximately 9 months for long-term experiments. For experiments with Dysf-null and wildtype mice, both females and males (approximately 1:1 ratio) were randomized in treatment groups. […] Dosing was based on weekly weight measurements (1 mg/kg body weight, (Sali et al., 2012)) in 100 μl total PBS volume per dose. Mice were injected daily via intraperitoneal injection at 7 AM. On injection days, stock solutions stored at −20° C. were diluted into sterile Eppendorf tubes containing sterile phosphate buffered saline (PBS) (#14190; Thermo Fisher, Waltham, Mass.). Puromycin (cat #A1113803, Thermo Scientific, Waltham, Mass.) was administered i.p. as 0.040 μmol/body g, and tissues were snap-frozen 30 minutes after injection. Sterile BD Micro-Fine IV Insulin Syringes (#14-829-1A; Fisher Scientific, Waltham, Mass.) were used to inject the intraperitoneal cavity of non-sedated animals. All animal analyses both during treatment and at endpoint were conducted blinded to treatment groups.
Dosing of metabolic and endocrine biomarkers. Glycogen was quantitated using the Glycogen Assay Kit (#ab65620; Abcam, Cambridge, Mass.) from approximately 25 mg frozen-pulverized whole tissue, following manufacturer's instructions and internal standards for calculating μg/mg values. For measurement of whole-tissue ATP/NAD^+ levels, approximately 25 mg frozen-pulverized tissue was extracted in 10% perchloric acid and neutralized in 0.75 M K2CO3, as previously described (Ramsey et al., 2009). NAD+ and ATP were measured by high-pressure liquid chromatography (HPLC) with Shimadzu LC-20A pump (Shimadzu Scientific Instr Inc, Addison, Ill.) and UV-VIS detector, using a Supelco LC-18-T column (15 cm×[…]; #58970-U; Millipore-Sigma, St Louis, Mo.). […] ATP and NAD^+ eluted as sharp peaks at 3 and 14 minutes, respectively, and were normalized to tissue weight of frozen liver tissue for calculating pmol/mg values. Corticosterone was measured in mouse serum and cortisol was measured in human serum using dedicated ELISA kits (#ADI-900-097, Enzo Life Science, Farmingdale, N.Y.; #K7430-100, BioVision, Milpitas, Calif.) according to manufacturer's instructions and internal standards to calculate ng/ml values. Insulin levels were quantitated in mouse and human serum with species-specific ELISA kits (#10-1247-01 (mouse-specific); #10-1113-01 (human-specific); Mercodia, Uppsala, Sweden), following manufacturer's instructions and internal standards to calculate ng/ml values. Free fatty acids were quantitated using Enzychrom Free Fatty Acid Assay kit (#EFFA-100; BioAssay Systems, Hayward, Calif.), following kit's instructions and standards to calculate μM (serum) and nmol/mg (tissue) values.

SMILES: C[C@]12C=CC(=O)C=C1CC[C@@H]1[C@@H]2C(=O)C[C@@]2(C)[C@H]1CC[C@]2(O)C(=O)CO [prednisone, Prednisone]
- blood glucose: no change
- serum BCAA (mean ± s.e.m): 462 ± 7.32 µM
- serum corticosterone (mean ± s.e.m): 133 ± 8.36 ng/mL
- serum creatine kinase (mean ± s.e.m): 3.1 ± 0.16 U/ml
- serum free fatty acids (mean ± s.e.m): 547 ± 10.4 µM
- serum insulin (mean ± s.e.m): 1.51 ± 0.14 ng/mL
- serum β-hydroxybutyrate (mean ± s.e.m): 372 ± 5 µM
- tissue BCAA, diaphragm (mean ± s.e.m): 49.4 ± 2.14 nmol/mg
- tissue BCAA, heart (mean ± s.e.m): 1.74 ± 0.08 nmol/mg
- tissue BCAA, omental fat (mean ± s.e.m): 23.5 ± 0.43 nmol/mg
- tissue BCAA, quadriceps (mean ± s.e.m): 95.3 ± 3.21 nmol/mg
- tissue free fatty acids, heart (mean ± s.e.m): 0.211 ± 0.01 nmol/mg
- tissue free fatty acids, omental fat (mean ± s.e.m): 3.91 ± 0.12 nmol/mg
- tissue free fatty acids, quadriceps (mean ± s.e.m): 0.752 ± 0.05 nmol/mg
- tissue β-hydroxybutyrate, diaphragm (mean ± s.e.m): 12.9 ± 0.89 nmol/mg
- tissue β-hydroxybutyrate, heart (mean ± s.e.m): 20.2 ± 0.51 nmol/mg
- tissue β-hydroxybutyrate, omental fat (mean ± s.e.m): 23 ± 1.71 nmol/mg
- tissue β-hydroxybutyrate, quadriceps (mean ± s.e.m): 24.7 ± 1.58 nmol/mg
